Experimental data: patent US20220073554A1, “LINCOSAMIDE ANTIBIOTICS AND USES THEREOF” (President and Fellows of Harvard College, priority 2017, published 2022)
Where two headings read alike, the source gives them in different places.

Experiments:
Type in all cases: cell-based
[1] = system: S. aureus UNT-146, MP-620, TP 506 (ermA); assay: microbe, parasite or virus in culture; settings: Staphylococcus aureus
[2] = system: S. pyogenes MMX 946 Macrolide-Resistant; assay: MIC against S. pyogenes MMX 946 Macrolide-Resistant; settings: Streptococcus pyogenes
C. difficile BAA 1805 = assay: MIC against C. difficile BAA 1805; settings: Clostridioides difficile, BAA1805; C. difficile BAA 1805; read-out: MIC
P. aeruginosa ATCC 27853 = assay: MIC against P. aeruginosa ATCC 27853; settings: Pseudomonas aeruginosa, ATCC27853
[3] = system: S. pneumoniae UNT-039, MP-627, TP1517 (mefA); assay: MIC against S. pneumoniae UNT-039, MP-627, TP1517 (mefA); settings: Streptococcus pneumoniae
[4] = system: S. pneumoniae UNT-038, MP-626, TP 160 (mefA); assay: MIC against S. pneumoniae UNT-038, MP-626, TP 160 (mefA); settings: Streptococcus pneumoniae
H. influenzae ATCC 49247 = assay: MIC against H. influenzae ATCC 49247; settings: Haemophilus influenzae, ATCC49247; H. influenzae ATCC 49247; read-out: MIC
[5] = system: P. aeruginosa MMX Mex parent strain; assay: MIC against P. aeruginosa MMX Mex parent strain; settings: Pseudomonas aeruginosa
E. faecalis ATCC 29212 = assay: MIC against E. faecalis ATCC 29212; settings: Enterococcus faecalis
K. pneumoniae UNT TEM-10 = assay: microbe, parasite or virus in culture; settings: Klebsiella pneumoniae, UNTTEM10
B. fragilis ATCC 25285 = assay: MIC against B. fragilis ATCC 25285; settings: Bacteroides fragilis, ATCC25285; B. fragilis ATCC 25285; read-out: MIC
E. coli GUEST131 (NDM-1) = assay: microbe, parasite or virus in culture; settings: Escherichia coli
[6] = system: E. faecalis MMX 847 Macrolide-Resistant; assay: MIC against E. faecalis MMX 847 Macrolide-Resistant; settings: Enterococcus faecalis
E. coli MMX 0121 ΔTolC = assay: MIC against E. coli MMX 0121 ΔTolC; settings: Escherichia coli
[7] = system: S. aureus BAA-1556 (USA 300); assay: microbe, parasite or virus in culture; settings: Staphylococcus aureus
[8] = system: S. aureus UNT-120, MP-619, NR522 (USA 600, GISA); assay: microbe, parasite or virus in culture; settings: Staphylococcus aureus, USA600
[9] = system: K. pneumoniae IHMA 658692; KPC-2; assay: microbe, parasite or virus in culture; settings: Klebsiella pneumoniae
[10] = system: E. coli MMX TolC parent strain; assay: MIC against E. coli MMX TolC parent strain; settings: Escherichia coli
[11] = system: S. pneumoniae MMX 3031 cMefA; assay: MIC against S. pneumoniae MMX 3031 cMefA; settings: Streptococcus pneumoniae, MMX3031CMEFA
[12] = system: S. pyogenes UNT-014, MP-625 MacRes; assay: MIC against S. pyogenes UNT-014, MP-625 MacRes; settings: Streptococcus pyogenes
E. faecalis UNT-047 VRE = assay: microbe, parasite or virus in culture; settings: Enterococcus faecalis
[13] = system: S. pneumoniae TP 1579 (ermB + tet(M, O)); assay: MIC against S. pneumoniae TP 1579 (ermB + tet(M, O)); settings: Streptococcus pneumoniae
[14] = system: S. pneumoniae TP 1537 (ermB + mefA); assay: MIC against S. pneumoniae TP 1537 (ermB + mefA); settings: Streptococcus pneumoniae
[15] = system: S. aureus MP-549 msr(a) USA 300; assay: MIC against S. aureus MP-549 msr(a) USA 300; settings: Staphylococcus aureus, USA300, S. aureus MP-549 msr(a) USA 300
[16] = system: S. aureus UNT96, NRS710, MP-618 (USA100, Erythro > 8); assay: microbe, parasite or virus in culture; settings: Staphylococcus aureus
S. pyogenes ATCC 19615 = assay: MIC against S. pyogenes ATCC 19615; settings: Streptococcus pyogenes, ATCC19615; S. pyogenes ATCC 19615; read-out: MIC
S. pneumoniae ATCC 49619 = assay: MIC against S. pneumoniae ATCC 49619; settings: Streptococcus pneumoniae, ATCC49619; S. pneumoniae ATCC 49619; read-out: MIC
S. aureus MMX 3035 cErmA = assay: MIC against S. aureus MMX 3035 cErmA; settings: Staphylococcus aureus, MMX3035CERMA
E. coli ATCC 15922 = assay: MIC against E. coli ATCC 15922; settings: Escherichia coli, ATCC15922
S. aureus BAA 977 iErmA = assay: MIC against S. aureus BAA 977 iErmA; settings: Staphylococcus aureus, BAA977
S. aureus ATCC 29213 = assay: MIC against S. aureus ATCC 29213; settings: Staphylococcus aureus, ATCC29213, S. aureus ATCC 29213; read-out: MIC
K. pneumoniae ATCC 10031 = assay: MIC against K. pneumoniae ATCC 10031; settings: Klebsiella pneumoniae, ATCC10031; K. pneumoniae ATCC 10031; read-out: MIC

Measured: MIC

CSC1O[C@H]([C@H](NC(=O)[C@H]2NC[C@@H]3CC=CCO[C@H]32)[C@H](C)Cl)C(O)[C@@H](O)[C@H]1O (some centres unmarked) [FSA-24035]
≤ 0.0313 µg/mL: [3] | [4] | [12] | [13] | S. pyogenes ATCC 19615
1 µg/mL: H. influenzae ATCC 49247
0.5 µg/mL: [15]
≤ 0.06 µg/mL: [11] | S. pneumoniae ATCC 49619
16 µg/mL: [2] | E. faecalis ATCC 29212; ATCC29212
8 µg/mL: B. fragilis ATCC 25285
> 32 µg/mL: [1] | K. pneumoniae UNT TEM-10 | E. coli GUEST131 (NDM-1) | [7] | [8] | [9] | E. faecalis UNT-047 VRE | [16]
32 µg/mL: [14]; S. pneumoniae TP 1537 (ermB + mefA), read-out: MIC
> 64 µg/mL: P. aeruginosa ATCC 27853 | [5] | [6] | [10] | S. aureus MMX 3035 cErmA | E. coli ATCC 15922
4 µg/mL: E. coli MMX 0121 ΔTolC
2 µg/mL: C. difficile BAA 1805

CSC1O[C@H]([C@H](NC(=O)[C@H]2NC[C@@H]3CC(F)(F)CCO[C@H]32)[C@H](C)Cl)C(O)[C@@H](O)[C@H]1O (some centres unmarked) [FSA-24036]
> 64 µg/mL: P. aeruginosa ATCC 27853; P. aeruginosa ATCC 27853, read-out: MIC | [5]; P. aeruginosa MMX Mex parent strain, read-out: MIC | [6]; E. faecalis MMX 847 Macrolide-Resistant (MacRes), read-out: MIC | [10]; E. coli MMX TolC parent strain, read-out: MIC | S. aureus MMX 3035 cErmA; S. aureus MMX 3035 cErmA, read-out: MIC | E. coli ATCC 15922; E. coli ATCC 15922, read-out: MIC
2 µg/mL: C. difficile BAA 1805
0.5 µg/mL: S. aureus BAA 977 iErmA
≤ 0.06 µg/mL: [11] | S. pneumoniae ATCC 49619
4 µg/mL: [2]; S. pyogenes MMX 946 Macrolide-Resistant (MacRes), read-out: MIC | H. influenzae ATCC 49247 | E. faecalis ATCC 29212; ATCC29212, read-out: MIC | B. fragilis ATCC 25285
≤ 0.0313 µg/mL: [3] | [4] | [12] | [13] | S. pyogenes ATCC 19615
8 µg/mL: E. coli MMX 0121 ΔTolC
> 32 µg/mL: [1] | K. pneumoniae UNT TEM-10 | E. coli GUEST131 (NDM-1) | [7] | [8] | [9] | E. faecalis UNT-047 VRE | [14] | [16]

CSC1O[C@H]([C@H](NC(=O)[C@@H]2[C@@H]3OCCCC[C@H]3CN2C)[C@H](C)Cl)C(O)[C@@H](O)[C@H]1O (some centres unmarked) [FSA-24040]
8 µg/mL: K. pneumoniae ATCC 10031 | H. influenzae ATCC 49247
≤ 0.0313 µg/mL: S. aureus ATCC 29213 | [3] | [4] | [12] | [13] | S. pyogenes ATCC 19615 | S. pneumoniae ATCC 49619
> 32 µg/mL: [1] | P. aeruginosa ATCC 27853 | E. coli GUEST131 (NDM-1) | [7] | [8] | [9] | E. faecalis UNT-047 VRE | [14] | [16] | E. coli ATCC 15922
